These results are taken from patent publication US7122570B2, “Tetrahydrocarbazol derivatives as ligands for G-protein-coupled receptors (GPCR)” (Zentaris AG, priority 2001, dated 2006).

The target of assay [1] is T1, GnRH receptor (Homo sapiens, UniProt P30968).
T1 sequence (P30968 1-328): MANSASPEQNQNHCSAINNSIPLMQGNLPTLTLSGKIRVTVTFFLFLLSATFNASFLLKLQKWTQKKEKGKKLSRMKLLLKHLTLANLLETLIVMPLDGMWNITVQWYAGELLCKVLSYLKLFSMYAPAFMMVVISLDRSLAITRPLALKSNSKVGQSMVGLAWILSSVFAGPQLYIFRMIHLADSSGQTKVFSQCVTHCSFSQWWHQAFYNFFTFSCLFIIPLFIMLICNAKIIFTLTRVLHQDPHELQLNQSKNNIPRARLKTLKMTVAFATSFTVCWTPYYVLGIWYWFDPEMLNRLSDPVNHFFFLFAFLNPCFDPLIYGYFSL
As to the kind of experiment: Ca2+ release, human. Format: cell-based. Conditions: read-out: Ca^2+ Release Human IC50.

Assay [2] addresses T2, hGnRH-Receptor (Homo sapiens, UniProt P30968).
T2 construct: expressed in transfected cells; host or cells: CHO-3 cells (Schmid et al., J. Biol. Chem. 275 (2000), 9193-9200), membrane preparation
T2 sequence (P30968 1-328): T1 sequence (P30968 1-328)
In words: GnRH receptor assay: competition binding with 125I-labeled buserelin on cell membranes. Conditions: competition with 125I-buserelin. As for the experimental part: Buserelin is ordered from Welding (Frankfurt/Main, Germany). The compound is labeled with ^125I by use of the chloramine T-method and Na^125I (4000 Ci/mmol; Amersham-Buchler, Brunswick, Germany). The labeled substance is purified by reverse phase HPLC on a Spherisorb ODS II column (250×4 mm, particle size 3 μm) by elution with 50% acetonitrile/0.15% trifluoroacetic acid at a flow rate of 0.5 ml/minute. The specific activity is 2000 Ci/mmol.
Alpha T3-1 cells (Bilezikjian et al., Mol. Endocrinol 5 (1991), 347–355) are cultivated in DMEM medium (Gibco-BRL, Eggenstein-Leopoldshafen, Germany) with penicillin (100 I.U./ml), streptomycin (0.1 mg/ml) and glutamine (0.01 mol/l) and 10% fetal calf serum (FCS; PAA Laboratories, Coelbe, Germany) on plastic tissue culture plates (Nunc, 245×245×20 mm). CHO-3 cells (Schmid et al., J. Biol. Chem. 275 (2000), 9193–9200) are cultivated under identical conditions, apart from the fact that Ham's F12 medium (Gibco-BRL) is used.
Ten confluent cell culture plates are flushed twice with 50 ml of phosphate-buffered salt solution (PBS). The cells are harvested by scraping them off with a rubber scraper in 5 ml of PBS and sedimented by centrifuging in a laboratory centrifuge (Heraeus) at 800 rpm for 10 minutes. The cell pellet is resuspended in 5 ml of 0.25 mol/l of saccharose/0.01 mol/l of triethanolamine, pH 7.4. The cells are lysed by three cycles of freezing in dry ice/ethanol bath and thawing at room temperature. The lysate is centrifuged at 900 rpm for 10 minutes, and the sediment is discarded. The supernatant is centrifuged at 18,000 rpm in a Sorvall SS34 rotor for 30 minutes. The pellet (cell membranes) is suspended by Potters in 5 ml of assay buffer (0.25 mol/l of saccharose, 0.01 mol/l of triethanolamine, pH 7.5, 1 mg/ml of ovalbumin) and stored in 200 μl of aliquots at −20° C. The determination of protein is carried out according to the Bradford method (Anal. Biochem. 72 (1976), 248–254).
Binding studies for competition curves are performed as triplicates. A test sample contains 60 μl of cell membrane suspension (10 μg of protein for αT3-1 cells or 40 μg of protein for CHO3 cells), 20 μl of ^125I-labeled buserelin (100,000 Ipm per sample for competition curves and between 1,500 and 200,000 Ipm for saturation experiments) and 20 μl of test buffer or test compound solution. The test compounds are dissolved in distilled water or 50% ethanol. Serial dilutions (5×10^−6 mol/l to […]) are produced in test buffer. The unspecific binding is determined in the presence of excess unlabeled buserelin (10^−6 mol/1). The test samples are incubated for 30 minutes at room temperature. Bonded and free ligands are separated by filtration (Whatman GF/C-filter, 2.5 cm diameter) with use of an Amicon 10x collecting device and washed twice with 5 ml of 0.02 mol/l of Tris/HCl, pH 7.4. The filters are moistened with 0.3% polyethylenimine (Serva; Heidelberg, Germany) for 30 minutes to reduce the unspecific binding. The radioactivity that was held up by the filter is determined in a 5-channel gamma-counter (Wallac-LKB 1470 Wizard).
In the table below, the IC50 values that are obtained for the preferred compounds, as defined above, are indicated.

Turning to `CC[C@H](C)[C@H](NC(=O)OCc1ccccc1)C(=O)N[C@]1(C(=O)N[C@H](C(N)=O)C(C)C)CCc2[nH]c3ccc(Cl)cc3c2C1` [Compound 148a, Phenylmethyl [(1S,2S)-1-[[[(3R)-3-[[[(1S)-1-(aminocarbonyl)-2-methylpropyl]amino]-carbonyl]-6-chloro-2,3,4,9-tetrahydro-1H-carbazol-3-yl]amino]carbonyl]-2-methylbutyl]carbamate], the IC50 (in general, the concentration that inhibits the measured activity by half) in assay [1] was found to be 140 nM; in assay [2], 80 nM.

For the compound `CC[C@H](C)[C@H](NC(=O)OCc1ccccc1)C(=O)N[C@]1(C(=O)N[C@H](C(N)=O)C(C)C)CCc2[nH]c3c(C)cccc3c2C1` [Compound 150a, Phenylmethyl [(1S,2S)-1-[[[(3R)-3-[[[(1S)-1-(aminocarbonyl)-2-methylpropyl]amino]-carbonyl]-2,3,4,9-tetrahydro-8-methyl-1H-carbazol-3-yl]amino]carbonyl]-2-methylbutyl]carbamate], the results for the IC50 in assay [1] and in assay [2] were 280 nM and 110 nM, respectively.

In the case of `CC(C)C(NC(=O)C1(NC(=O)Cc2ccc3ccccc3c2)CCc2[nH]c3ccccc3c2C1)C(N)=O` [Compound 161b, (3S)-N-[(1S)-1-(Aminocarbonyl)-2-methyl-propyl]-2,3,4,9-tetrahydro-3-[(2-naphthalenyl-acetyl)amino]-1H-carbazole-3-carboxamide], the results for the IC50 in assay [1] and in assay [2] were 3600 nM and 3700 nM, respectively.

`CC(C)[C@H](NC(=O)[C@]1(NC(=O)Cc2c[nH]c3ccccc23)CCc2[nH]c3ccccc3c2C1)C(N)=O` [Compound 164b, (3S)-N-[(1S)-1-(Aminocarbonyl)-2-methyl-propyl]-2,3,4,9-tetrahydro-3-[(1H-indol-3-yl-acetyl)amino]-1H-carbazole-3-carboxamide]: the concentration for half-maximal inhibition (IC50) in assay [1] is 6500 nM; in assay [2], 6000 nM.

As for `CC(C)[C@H](NC(=O)[C@@]1(NC(=O)Cc2ccc(Cl)cc2)CCc2[nH]c3ccccc3c2C1)C(N)=O` [Compound 167a, (3R)-N-[(1S)-1-(Aminocarbonyl)-2-methyl-propyl]-3-[[(4-chlorophenyl)acetyl]amino]-2,3,4,9-tetrahydro-1H-carbazole-3-carboxamide], the half-inhibitory concentration (IC50) came to 2600 nM in assay [1] and 1000 nM in assay [2].

Turning to `COc1ccc(CC(=O)NC2(C(=O)N[C@H](C(N)=O)C(C)C)CCc3[nH]c4ccccc4c3C2)cc1` (stereo partly drawn) [Compound 175, N-[(1S)-1-(Aminocarbonyl)-2-methylpropyl]-2,3,4,9-tetrahydro-3-[[(4-methoxyphenyl)-acetyl]amino]-1H-carbazole-3-carboxamide], the IC50 in assay [1] worked out at 1800 nM; in assay [2] it was 8000 nM.

With `CC[C@H](C)[C@H](NC(=O)OCc1ccccc1)C(=O)N[C@]1(C(=O)N2CCC[C@H]2C(N)=O)CCc2[nH]c3ccccc3c2C1` [Compound 181a, Phenylmethyl [(1S,2S)-1-[[[(3R)-3-[[(2S)-2-(aminocarbonyl)-1-pyrrolidinyl]carbonyl]-2,3,4,9-tetrahydro-1H-carbazol-3-yl]amino]-carbonyl]-2-methylbutyl]carbamate], the results for the 50% inhibitory concentration (IC50) in assay [1] and in assay [2] were 3000 nM and 700 nM, respectively.

With `CC[C@H](C)[C@H](NC(=O)OCc1ccccc1)C(=O)N[C@]1(C(=O)N[C@H](C(N)=O)C(C)C)CCc2[nH]c3c(Cl)cc(Cl)cc3c2C1` [Compound 184a, Phenylmethyl [(1S,2S)-1-[[[(3R)-3-[[[(1S)-1-(aminocarbonyl)-2-methylpropyl]amino]-carbonyl]-6,8-dichloro-2,3,4,9-tetrahydro-1H-carbazol-3-yl]amino]carbonyl]-2-methylbutyl]-carbamate], the IC50 in assay [1] was determined as 45 nM; in assay [2], 15 nM.

For the compound `COc1cccc2c3c([nH]c12)CC[C@](NC(=O)Cc1ccc(Cl)cc1)(C(=O)N1CCC[C@H]1C(N)=O)C3` [Compound 189a, (2S)-1-[[(3R)-3-[[(4-Chlorophenyl)acetyl]-amino]-2,3,4,9-tetrahydro-8-methoxy-1H-carbazol-3-yl]carbonyl]-2-pyrrolidine-carboxamide], the IC50 turned out to be 500 nM in assay [1] and 700 nM in assay [2].

Take `CC[C@H](C)[C@H](NC(=O)OCc1ccccc1)C(=O)N[C@]1(C(=O)N2C3CCCCC3C[C@H]2C(N)=O)CCc2[nH]c3ccccc3c2C1` (stereo partly drawn) [Compound 190a, Phenylmethyl [(1S,2S)-1-[[[(3R)-3-[[(2S)-2-(aminocarbonyl)octahydro-1H-indol-1-yl]-carbonyl]-2,3,4,9-tetrahydro-1H-carbazol-3-yl]-amino]carbonyl]-2-methylbutyl]carbamate]: the IC50 was 500 nM in assay [1] and 2000 nM in assay [2].

As for `CC[C@H](C)[C@H](NC(=O)OCc1ccccc1)C(=O)N[C@]1(C(=O)N[C@H](C(=O)NC)C(C)C)CCc2[nH]c3ccccc3c2C1` [Compound 222a, Phenylmethyl [(1S,2S)-2-methyl-1-[[[(3R)-2,3,4,9-tetrahydro-3-[[[(1S)-2-methyl-1-[(methylamino)carbonyl]-propyl]amino]carbonyl]-1H-carbazol-3-yl]amino]carbonyl]-butyl]carbamate], the values for the half-inhibitory concentration (IC50) in assay [1] and in assay [2] were 3000 nM and 2500 nM, respectively.

Turning to `CC(C)[C@H](NC(=O)[C@@]1(NCCCCCCc2ccccc2)CCc2[nH]c3ccccc3c2C1)C(N)=O` [Compound 234a, (3R)-N-[(1S)-1-(Aminocarbonyl)-2-methylpropyl]-2,3,4,9-tetrahydro-3-[(6-phenylhexyl)amino]-1H-carbazole-3-carboxamide], the figures for the IC50 in assay [1] and in assay [2] were 1000 nM and 9000 nM, respectively.

For `CC[C@H](C)[C@H](NC(=O)OCc1ccccc1)C(=O)N[C@]1(C(=O)N[C@H](CO)C(C)C)CCc2[nH]c3ccccc3c2C1` [Compound 267a, Phenylmethyl [(1S,2S)-1-[[[(3R)-3-[[[(1S)-1-(hydroxymethyl)-2-methylpropyl]amino]-carbonyl]-2,3,4,9-tetrahydro-1H-carbazol-3-yl]amino]carbonyl]-2-methylbutyl]carbamate], the IC50 in assay [1] was 500 nM; in assay [2], 400 nM.

`c1ccc(CCCC2(CNCc3ccccn3)CCc3[nH]c4ccccc4c3C2)cc1` (centres unmarked) [Compound 279, 2,3,4,9-Tetrahydro-3-(3-phenylpropyl)-N-(2-pyridinylmethyl)-1H-carbazole-3-methanamine]: the half-inhibitory concentration (IC50) in assay [1] stood at 3000 nM; in assay [2], 2000 nM.

For the compound `Clc1cc(Cl)c2[nH]c3c(c2c1)CC(CCCc1ccccc1)(CNCc1ccccn1)CC3` (centres unmarked) [Compound 283, 6,8-dichloro-2,3,4,9-tetrahydro-3-(3-phenylpropyl)-N-(2-pyridinylmethyl)-1H-carbazole-3-methanamine], the IC50 in assay [1] amounted to 3000 nM; in assay [2], 1000 nM.

Turning to `CC(C)[C@@H](CO)NCC1(CCCc2ccccc2)CCc2[nH]c3ccccc3c2C1` (stereo partly drawn) [Compound 284, (2S)-3-Methyl-2-[[[2,3,4,9-tetrahydro-3-(3-phenylpropyl)-1H-carbazol-3-yl]methyl]-amino]-1-butanol], the half-maximal inhibitory concentration (IC50) in assay [1] and in assay [2] was 7000 nM in each case.
